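Following 48 hours of exposure in 96-well plates, responses at five concentrations were used to interpolate endpoints linearly. TGI: total growth inhibition.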 Where a SMILES comes first, the peptide text is derived from it. The star is where a group is joined. Cbz = O=C(OCc1ccccc1)*; NHNH2 = NN*
Assays:
Assay in all cases: NCI tumour cell line growth inhibition, 48 h
786-0 renal = tested on: 786-0 renal
A549 NSCLC = tested on: A549 NSCLC
ACHN renal = tested on: ACHN renal
BT-549 breast = tested on: BT-549 breast
CCRF-CEM leukemia = tested on: CCRF-CEM leukemia
MDA-MB-231 breast = tested on: MDA-MB-231 breast
MDA-MB-435 = tested on: MDA-MB-435
MOLT-4 leukemia = tested on: MOLT-4 leukemia
NCI-H226 lung = tested on: NCI-H226 lung
NCI-H23 lung = tested on: NCI-H23 lung
NCI-H460 lung = tested on: NCI-H460 lung
OVCAR-8 ovarian = tested on: OVCAR-8 ovarian
PC-3 prostate = tested on: PC-3 prostate
RXF 393 renal = tested on: RXF 393 renal
SF-268 CNS = tested on: SF-268 CNS
SK-MEL-28 melanoma = tested on: SK-MEL-28 melanoma
SK-OV-3 ovarian = tested on: SK-OV-3 ovarian
SW-620 colon = tested on: SW-620 colon
TK-10 renal = tested on: TK-10 renal
NCI-H522 lung = tested on: NCI-H522 lung

| SMILES | TGI (786-0 renal) [µM] | TGI (A549 NSCLC) [µM] | TGI (ACHN renal) [µM] | TGI (BT-549 breast) [µM] | TGI (CCRF-CEM leukemia) [µM] | TGI (MDA-MB-231 breast) [µM] | TGI (MDA-MB-435) [µM] | TGI (MOLT-4 leukemia) [µM] | TGI (NCI-H226 lung) [µM] | TGI (NCI-H23 lung) [µM] | TGI (NCI-H460 lung) [µM] | TGI (OVCAR-8 ovarian) [µM] | TGI (PC-3 prostate) [µM] | TGI (RXF 393 renal) [µM] | TGI (SF-268 CNS) [µM] | TGI (SK-MEL-28 melanoma) [µM] | TGI (SK-OV-3 ovarian) [µM] | TGI (SW-620 colon) [µM] | TGI (TK-10 renal) [µM] | TGI (NCI-H522 lung) [µM] |
| --- | --- | --- | --- | --- | --- | --- | --- | --- | --- | --- | --- | --- | --- | --- | --- | --- | --- | --- | --- | --- |
| CC(=O)C(=[N+]=[N-])C(=O)N(C)CCC#N | > 10 | > 10 | > 10 | > 10 | > 10 | > 10 | > 10 | > 10 | > 10 | > 10 | > 10 | > 10 | > 10 | > 10 | > 10 | > 10 | > 10 | > 10 | > 10 | – |
| Cc1ccc(NC(=O)/C(=N/N(C)C)C(C2OC(=O)c3ccccc32)[N+](=O)[O-])cc1 (stereo not drawn) | > 100 | > 100 | > 100 | > 100 | > 100 | > 100 | > 100 | > 100 | > 100 | > 100 | > 100 | > 100 | > 100 | > 100 | > 100 | > 100 | > 100 | > 100 | > 100 | – |
| CN(C(=O)Cc1cc(Cl)c(Cl)cc1NC(=O)CN)[C@H]1CCCC[C@@H]1N1CCCC1 | 38 | > 100 | > 100 | > 100 | 73.3 | 71.2 | 32.6 | > 100 | – | > 100 | > 100 | > 100 | > 100 | > 100 | > 100 | – | > 100 | > 100 | > 100 | – |
| CCOC(=O)C(C)c1nc2ccc(C(F)(F)F)cc2[nH]c1=O (stereo not drawn) | > 100 | > 100 | > 100 | > 100 | > 100 | > 100 | > 100 | > 100 | > 100 | > 100 | > 100 | > 100 | > 100 | > 100 | > 100 | > 100 | > 100 | > 100 | > 100 | – |
| CCOC(=O)CCC(NC(=O)OCc1ccccc1)C(=O)NC(CCC(=O)OCC)C(=O)NN (stereo not drawn) (Cbz-Glu(OEt)-Glu(OEt)-NHNH2; configuration not given here) | > 100 | > 100 | > 100 | > 100 | – | > 100 | – | > 100 | > 100 | – | > 100 | > 100 | > 100 | – | – | > 100 | – | > 100 | > 100 | – |
| C(=Nc1ccc(-c2nc3ccccc3[nH]2)cc1)c1ccco1 | > 100 | > 100 | > 100 | > 100 | > 100 | – | > 100 | > 100 | > 100 | > 100 | – | > 100 | > 100 | > 100 | > 100 | > 100 | – | > 100 | > 100 | > 100 |
| O=C(Nc1nnc(-c2c(Cl)c(Cl)c(Cl)c(Cl)c2-c2nc3cc(C(=O)c4ccccc4)ccc3[nH]2)o1)c1ccc(Cl)cc1 | > 100 | > 100 | > 100 | > 100 | > 100 | > 100 | > 100 | > 100 | > 100 | > 100 | – | > 100 | > 100 | > 100 | – | > 100 | > 100 | > 100 | > 100 | – |
| CC1C2=C(CCCC2=O)N(c2ccc(Cl)cc2)C2=C1C(=O)CCC2 | > 100 | > 100 | > 100 | > 100 | > 100 | – | – | > 100 | > 100 | > 100 | > 100 | > 100 | > 100 | 78.4 | > 100 | > 100 | > 100 | > 100 | > 100 | – |
| CCOC(=O)CN1CC(C2=C(O)CN(CC(=O)OCC)C2=O)=CC1=O | > 100 | > 100 | > 100 | > 100 | > 100 | > 100 | > 100 | > 100 | > 100 | > 100 | > 100 | > 100 | > 100 | – | > 100 | > 100 | > 100 | > 100 | > 100 | > 100 |
| Cc1ccc(S(=O)(=O)N/N=C2/CC3CCC4CC2CC34)cc1 (stereo not drawn) | > 100 | > 100 | > 100 | > 100 | > 100 | > 100 | > 100 | > 100 | > 100 | > 100 | > 100 | > 100 | > 100 | – | > 100 | > 100 | > 100 | > 100 | > 100 | > 100 |
| O=C(Nc1sccc1S(=O)(=O)c1ccccc1)c1ccccc1 | > 100 | > 100 | > 100 | > 100 | – | > 100 | > 100 | > 100 | > 100 | > 100 | > 31.6 | > 100 | > 100 | – | > 100 | > 100 | > 100 | > 100 | > 100 | > 100 |
| CC1(C)OC[C@@H](O)[C@H](Br)CO1 | > 100 | – | > 100 | > 100 | > 100 | > 100 | > 100 | > 100 | > 100 | > 100 | > 100 | > 100 | > 100 | > 100 | > 100 | > 100 | > 100 | > 100 | > 100 | – |
| CC1(C)CC(=O)c2c(nc3c(ccc4ccccc43)c2-c2ccc(NC(=O)CCCCC(=O)Nc3ccc(-c4c5c(nc6c4ccc4ccccc46)CC(C)(C)CC5=O)cc3)cc2)C1 | > 100 | > 100 | 69.1 | – | 78.3 | 64.6 | > 100 | 55.9 | 54.9 | – | 91.8 | 98.4 | > 100 | > 100 | > 100 | > 100 | > 100 | > 100 | > 100 | > 100 |
| CCCN1C(=O)/C(=C\c2ccc(OC)c(OC)c2)SC1=Nc1ccccc1 | > 100 | > 100 | > 100 | > 100 | > 100 | > 100 | > 100 | > 100 | > 100 | > 100 | > 100 | > 100 | > 100 | – | > 100 | > 100 | > 100 | > 100 | 74.1 | > 100 |
| CNC(=O)OC(COC)CN1CCN(c2ccccc2C)CC1 (stereo not drawn) | > 10 | > 10 | > 10 | – | > 10 | > 10 | > 10 | > 10 | > 10 | > 10 | > 10 | > 10 | > 10 | > 10 | > 10 | > 10 | > 10 | > 10 | > 10 | > 10 |
| CC(C)(C)OC(=O)Cn1ncn(NC(=O)Cc2ccccc2)c1=O | > 10 | > 10 | > 10 | > 10 | > 10 | > 10 | > 10 | > 10 | > 10 | > 10 | > 10 | > 10 | > 10 | – | > 10 | > 10 | > 10 | > 10 | > 10 | > 10 |
| CCN(CC)c1ccc2cc(C(=O)Nc3ccc(C)cc3)c(=N)oc2c1 | > 100 | > 100 | > 100 | > 100 | > 100 | > 100 | > 100 | > 100 | > 100 | > 100 | > 100 | > 100 | > 100 | > 100 | > 100 | > 100 | > 100 | > 100 | – | – |
| CCn1c(=O)c2nc(SC)sc2n(-c2ccccc2)c1=O | > 100 | > 100 | > 100 | – | > 100 | > 100 | > 100 | > 100 | > 100 | > 100 | > 100 | > 100 | > 100 | > 100 | > 100 | > 100 | > 100 | > 100 | > 100 | > 100 |
| COc1ccccc1NCc1cccc2c(=O)c3ccc(Cl)cc3oc12 | > 100 | > 100 | > 100 | > 100 | > 100 | > 100 | > 100 | > 100 | > 100 | > 100 | – | > 100 | > 100 | – | – | > 100 | > 100 | > 100 | > 100 | > 100 |
| Cc1c(N2C(=O)/C(=C/c3ccc(N(CCC#N)CCC#N)cc3)N=C2c2ccccc2)c(=O)n(-c2ccccc2)n1C | > 100 | > 100 | – | > 100 | > 100 | > 100 | > 100 | > 100 | > 100 | > 100 | > 100 | > 100 | – | > 100 | > 100 | > 100 | > 100 | > 100 | – | – |
| CC[C@H](C)C1=C(O)[N@+]2([O-])Oc3ccc(-c4c(O)c(O)c(-c5ccc(O)cc5)c(OC(C)=O)c4OC(C)=O)cc3O[C@]2([C@@H](C)CC)C(=O)N1O | > 50 | > 50 | > 50 | > 50 | – | > 50 | > 50 | > 50 | – | > 50 | > 50 | > 50 | > 50 | > 50 | > 50 | > 50 | 48 | > 50 | > 50 | 17.4 |
| C=CCOc1ccccc1C1(O)c2ccccc2C2=NCCCN21 (stereo not drawn) | > 100 | > 100 | 83.9 | > 100 | > 100 | > 100 | > 100 | > 100 | 76.4 | > 100 | > 100 | 34.6 | 57.2 | – | > 100 | 52.2 | > 100 | > 100 | > 100 | – |
| N#Cc1c(-c2ccc(Cl)cc2)c2c(N=Nc3c(O)ccc4ccccc34)[nH]nc2[nH]c1=O | 2.04 | 2.3 | 0.492 | 0.619 | – | 1.08 | – | 1.34 | 1.93 | – | 0.851 | 1.21 | 2.05 | 0.878 | 1.66 | – | 1.58 | 2.31 | 1.8 | 0.823 |
| CO[C@@H]1C[C@H](OC(N)=O)[C@@H]2C=C[C@@H]3/C=C(C)/C=C/[C@@H](C)[C@H](/C(C)=C/[C@@H](C)NC(C)=O)OC(=O)/C=C/C=C(C)\C=C\[C@]3(C)[C@@H]2C1 | 2.74 | 0.223 | 0.613 | 12 | 7.59 | – | 3.11 | 13.8 | – | 2.84 | – | 50 | 1.58 | 0.455 | 1.4 | 0.458 | 0.192 | 1.24 | – | 0.103 |
| CCn1c2ccccc2c2ccc(C3C(C(=O)OC)=C(C)NC(C)=C3C(=O)OC)cc21 | > 100 | > 100 | > 100 | > 100 | > 100 | > 100 | > 100 | > 100 | > 100 | > 100 | > 100 | > 100 | – | 49.4 | > 100 | > 100 | > 100 | > 100 | > 100 | – |

Reference: PubChem BioAssay (NCI)
